Source: PubChem BioAssay (NCI)
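Where inhibition never reached the appropriate level, the endpoint shown equals the highest concentration tested. Otherwise, values were interpolated linearly from a five-concentration, 48-hour dose response in 96-well plates. GI50 marks 50% less growth. TGI: total growth inhibition.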

What was measured:
Experiment in all cases: inhibition of tumour cell growth, NCI panel, 48 h
OVCAR-5 ovarian = system: OVCAR-5 ovarian
HT29 colon = system: HT29 colon
MCF7 breast = system: MCF7 breast
K-562 leukemia = system: K-562 leukemia
SF-295 CNS = system: SF-295 CNS
OVCAR-3 ovarian = system: OVCAR-3 ovarian
UO-31 renal = system: UO-31 renal
HCC-2998 colon = system: HCC-2998 colon
IGROV1 ovarian = system: IGROV1 ovarian
NCI-H460 lung = system: NCI-H460 lung
M14 melanoma = system: M14 melanoma
HOP-92 NSCLC = system: HOP-92 NSCLC
NCI-H522 lung = system: NCI-H522 lung
NCI-H226 lung = system: NCI-H226 lung
SW-620 colon = system: SW-620 colon
BT-549 breast = system: BT-549 breast
SNB-75 CNS = system: SNB-75 CNS
SF-268 CNS = system: SF-268 CNS
MDA-MB-231 breast = system: MDA-MB-231 breast
TK-10 renal = system: TK-10 renal
HL-60(TB) leukemia = system: HL-60(TB) leukemia
CCRF-CEM leukemia = system: CCRF-CEM leukemia
MDA-MB-435 = system: MDA-MB-435
HOP-62 NSCLC = system: HOP-62 NSCLC
NCI/ADR-RES ovarian = system: NCI/ADR-RES ovarian
SF-539 CNS = system: SF-539 CNS
SNB-19 CNS = system: SNB-19 CNS
LOX IMVI melanoma = system: LOX IMVI melanoma
DU-145 prostate = system: DU-145 prostate
RPMI-8226 leukemia = system: RPMI-8226 leukemia
ACHN renal = system: ACHN renal
HCT-116 colon = system: HCT-116 colon
HS 578T breast = system: HS 578T breast
OVCAR-8 ovarian = system: OVCAR-8 ovarian
PC-3 prostate = system: PC-3 prostate
SK-MEL-5 melanoma = system: SK-MEL-5 melanoma
U251 CNS = system: U251 CNS
RXF 393 renal = system: RXF 393 renal
HCT-15 colon = system: HCT-15 colon
UACC-62 melanoma = system: UACC-62 melanoma
COLO 205 colon = system: COLO 205 colon
MALME-3M melanoma = system: MALME-3M melanoma
UACC-257 melanoma = system: UACC-257 melanoma
SN12C renal = system: SN12C renal
SK-MEL-2 melanoma = system: SK-MEL-2 melanoma
SR leukemia = system: SR leukemia
T-47D breast = system: T-47D breast
CAKI-1 renal = system: CAKI-1 renal
KM12 colon = system: KM12 colon
EKVX NSCLC = system: EKVX NSCLC
NCI-H23 lung = system: NCI-H23 lung
OVCAR-4 ovarian = system: OVCAR-4 ovarian
786-0 renal = system: 786-0 renal
SK-OV-3 ovarian = system: SK-OV-3 ovarian
A549 NSCLC = system: A549 NSCLC
SK-MEL-28 melanoma = system: SK-MEL-28 melanoma
MOLT-4 leukemia = system: MOLT-4 leukemia
A498 renal = system: A498 renal

Molecule `COc1cc(S(C)(=O)=O)ccc1Nc1nc2ccc(-c3ccc(NC(=O)[C@H](C)c4ccc(F)cc4)cc3)cn2n1` has a GI50 (OVCAR-5 ovarian) greater than 100 µM, a TGI (OVCAR-5 ovarian) greater than 100 µM and a TGI (HT29 colon) greater than 100 µM. The GI50 (MCF7 breast) was 0.749 µM, the TGI (MCF7 breast) was greater than 100 µM and the GI50 (K-562 leukemia) was greater than 78.7 µM. It also gave a TGI (K-562 leukemia) greater than 100 µM, a GI50 (SF-295 CNS) greater than 100 µM and a TGI (SF-295 CNS) greater than 100 µM. The GI50 (OVCAR-3 ovarian) was greater than 100 µM, the TGI (OVCAR-3 ovarian) was greater than 100 µM and the GI50 (UO-31 renal) was greater than 100 µM. It also gave a TGI (UO-31 renal) greater than 100 µM, a GI50 (HCC-2998 colon) greater than 100 µM and a TGI (HCC-2998 colon) greater than 100 µM. It also gave a GI50 (IGROV1 ovarian) greater than 100 µM, a TGI (IGROV1 ovarian) greater than 100 µM and a GI50 (NCI-H460 lung) of 0.0821 µM. The TGI (NCI-H460 lung) was greater than 100 µM, the GI50 (M14 melanoma) was 33.2 µM and the TGI (M14 melanoma) was greater than 100 µM. For the same molecule, the GI50 (HOP-92 NSCLC) was greater than 51.1 µM, the TGI (HOP-92 NSCLC) was greater than 100 µM and the GI50 (NCI-H522 lung) was greater than 100 µM. For the same molecule, the TGI (NCI-H522 lung) was greater than 100 µM, the GI50 (NCI-H226 lung) was greater than 100 µM and the TGI (NCI-H226 lung) was greater than 100 µM. It also gave a GI50 (SW-620 colon) of 17.1 µM, a TGI (SW-620 colon) greater than 100 µM and a GI50 (BT-549 breast) greater than 63.8 µM. It also gave a TGI (BT-549 breast) greater than 100 µM, a GI50 (SNB-75 CNS) of 47.1 µM and a TGI (SNB-75 CNS) greater than 100 µM. For the same molecule, the GI50 (SF-268 CNS) was greater than 100 µM, the TGI (SF-268 CNS) was greater than 100 µM and the GI50 (MDA-MB-231 breast) was 26.6 µM. The TGI (MDA-MB-231 breast) was greater than 100 µM, the GI50 (TK-10 renal) was greater than 100 µM and the TGI (TK-10 renal) was greater than 100 µM. It also gave a GI50 (HL-60(TB) leukemia) of 12.9 µM, a TGI (HL-60(TB) leukemia) greater than 100 µM and a GI50 (CCRF-CEM leukemia) of 0.62 µM. It also gave a TGI (CCRF-CEM leukemia) greater than 100 µM, a GI50 (MDA-MB-435) greater than 100 µM and a TGI (MDA-MB-435) greater than 100 µM. For the same molecule, the GI50 (HOP-62 NSCLC) was greater than 100 µM, the TGI (HOP-62 NSCLC) was greater than 100 µM and the GI50 (NCI/ADR-RES ovarian) was greater than 20.6 µM. It also gave a TGI (NCI/ADR-RES ovarian) greater than 100 µM, a GI50 (SF-539 CNS) greater than 39.8 µM and a TGI (SF-539 CNS) greater than 100 µM. For the same molecule, the GI50 (SNB-19 CNS) was greater than 100 µM, the TGI (SNB-19 CNS) was greater than 100 µM and the GI50 (LOX IMVI melanoma) was 10.6 µM. It also gave a TGI (LOX IMVI melanoma) greater than 100 µM, a GI50 (DU-145 prostate) greater than 100 µM and a TGI (DU-145 prostate) greater than 100 µM. The GI50 (RPMI-8226 leukemia) was 0.847 µM, the TGI (RPMI-8226 leukemia) was greater than 100 µM and the GI50 (ACHN renal) was greater than 83.5 µM. For the same molecule, the TGI (ACHN renal) was greater than 100 µM, the GI50 (HCT-116 colon) was 0.0828 µM and the TGI (HCT-116 colon) was greater than 100 µM. It also gave a GI50 (HS 578T breast) greater than 63.4 µM, a TGI (HS 578T breast) greater than 100 µM and a GI50 (OVCAR-8 ovarian) of 9.36 µM. It also gave a TGI (OVCAR-8 ovarian) greater than 100 µM, a GI50 (PC-3 prostate) of 4.29 µM and a TGI (PC-3 prostate) greater than 100 µM. The GI50 (SK-MEL-5 melanoma) was 0.4 µM, the TGI (SK-MEL-5 melanoma) was greater than 100 µM and the GI50 (U251 CNS) was 35.9 µM. The TGI (U251 CNS) was greater than 100 µM, the GI50 (RXF 393 renal) was greater than 48.5 µM and the TGI (RXF 393 renal) was greater than 100 µM. For the same molecule, the GI50 (HCT-15 colon) was 0.075 µM, the TGI (HCT-15 colon) was greater than 100 µM and the GI50 (UACC-62 melanoma) was 75.6 µM. It also gave a TGI (UACC-62 melanoma) greater than 100 µM, a GI50 (COLO 205 colon) of 0.0838 µM and a TGI (COLO 205 colon) greater than 100 µM. For the same molecule, the GI50 (MALME-3M melanoma) was greater than 100 µM, the TGI (MALME-3M melanoma) was greater than 100 µM and the GI50 (UACC-257 melanoma) was greater than 100 µM. It also gave a TGI (UACC-257 melanoma) greater than 100 µM, a GI50 (SN12C renal) greater than 100 µM and a TGI (SN12C renal) greater than 100 µM. It also gave a GI50 (SK-MEL-2 melanoma) greater than 100 µM, a TGI (SK-MEL-2 melanoma) greater than 100 µM and a GI50 (SR leukemia) of 0.211 µM. It also gave a TGI (SR leukemia) greater than 100 µM, a GI50 (T-47D breast) of 0.596 µM and a TGI (T-47D breast) greater than 100 µM. It also gave a GI50 (CAKI-1 renal) greater than 100 µM, a TGI (CAKI-1 renal) greater than 100 µM and a GI50 (KM12 colon) greater than 72.4 µM. It also gave a TGI (KM12 colon) greater than 100 µM, a GI50 (EKVX NSCLC) greater than 100 µM and a TGI (EKVX NSCLC) greater than 100 µM. It also gave a GI50 (NCI-H23 lung) greater than 100 µM, a TGI (NCI-H23 lung) greater than 100 µM and a GI50 (OVCAR-4 ovarian) greater than 100 µM. For the same molecule, the TGI (OVCAR-4 ovarian) was greater than 100 µM, the GI50 (786-0 renal) was greater than 100 µM and the TGI (786-0 renal) was greater than 100 µM. The GI50 (SK-OV-3 ovarian) was greater than 100 µM, the TGI (SK-OV-3 ovarian) was greater than 100 µM and the GI50 (A549 NSCLC) was 98.5 µM. The TGI (A549 NSCLC) was greater than 100 µM, the GI50 (SK-MEL-28 melanoma) was greater than 100 µM and the TGI (SK-MEL-28 melanoma) was greater than 100 µM. The GI50 (MOLT-4 leukemia) was 1.18 µM, the TGI (MOLT-4 leukemia) was greater than 100 µM and the GI50 (A498 renal) was greater than 100 µM. The TGI (A498 renal) was greater than 100 µM.
